Values joined by “and” are separate entries in the source; they are usually repeats but may differ in a detail not shown here. Equal values may be shown once. Inconclusive results and toxic doses are left out.
Tested on: L1210 leukemia ip in BDF1 mice, survival T/C
Experiment: NCI In Vivo Anticancer Drug Screen. Data for tumor model L1210 Leukemia (intraperitoneal) in B6D2F1 (BDF1) mice
Conditions: endpoint: mean survival time, higher = longer survival
How it was run: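 In this screen, tumor-bearing mice given compound are compared to those given vehicle, and their survival values are reported as a treated-to-control quotient.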

## NC(=S)N/N=C/c1ccccn1
dose: 0.48 mg/kg/injection, schedule: Q01DX009 (ip), vehicle: saline with Tween-80
  T/C: 97 % of control and 115 % of control
dose: 0.9 mg/kg/injection, schedule: Q04DX002 (ip), vehicle: saline with Tween-80
  T/C: 100 % of control and 107 % of control
dose: 0.95 mg/kg/injection, schedule: Q01DX009 (ip), vehicle: saline with Tween-80
  T/C: 106 % of control and 115 % of control
dose: 1.0 mg/kg/injection, schedule: Q03HX032 (ip), vehicle: other
  T/C: 117 % of control
dose: 1.3 mg/kg/injection, schedule: Q01DX Z (ip), vehicle: carboxymethylcellulose (CMC)
  T/C: 118 % of control
dose: 1.8 mg/kg/injection, schedule: Q03HX024 (ip), vehicle: carboxymethylcellulose (CMC)
  T/C: 92 % of control
dose: 1.8 mg/kg/injection, schedule: Q03HX024 (ip), vehicle: other
  T/C: 111 % of control
dose: 1.8 mg/kg/injection, schedule: Q04DX002 (ip), vehicle: saline with Tween-80
  T/C: 106 % of control and 110 % of control
dose: 1.9 mg/kg/injection, schedule: Q01DX009 (ip), vehicle: saline with Tween-80
  T/C: 113 % of control and 121 % of control
dose: 2.6 mg/kg/injection, schedule: Q03HX032 (ip), vehicle: other
  T/C: 213 % of control
dose: 3.0 mg/kg/injection, schedule: Q01DX015 (ip), vehicle: saline
  T/C: 105 % of control
dose: 3.0 mg/kg/injection, schedule: Q03HX032 (ip), vehicle: other
  T/C: 168 % of control
dose: 3.5 mg/kg/injection, schedule: Q03HX008 (ip), vehicle: other
  T/C: 164 % of control
dose: 3.5 mg/kg/injection, schedule: Q03HX016 (ip), vehicle: other
  T/C: 192 % of control
dose: 3.5 mg/kg/injection, schedule: Q03HX024 (ip), vehicle: other
  T/C: 368 % of control
dose: 3.5 mg/kg/injection, schedule: Q04DX002 (ip), vehicle: saline with Tween-80
  T/C: 104 % of control and 91 % of control
dose: 3.8 mg/kg/injection, schedule: Q01DX009 (ip), vehicle: saline with Tween-80
  T/C: 121 % of control
dose: 4.0 mg/kg/injection, schedule: Q03HX024 (ip), vehicle: carboxymethylcellulose (CMC)
  T/C: 197 % of control
dose: 4.0 mg/kg/injection, schedule: Q03HX024 (ip), vehicle: other
  T/C: 337 % of control
dose: 4.0 mg/kg/injection, schedule: Q03HX024 (ip), vehicle: saline with Tween-80
  T/C: 345 % of control
dose: 4.4 mg/kg/injection, schedule: Q01DX009 (ip), vehicle: saline
  T/C: 114 % of control
dose: 4.4 mg/kg/injection, schedule: Q02DX010 (ip), vehicle: carboxymethylcellulose (CMC)
  T/C: 114 % of control
dose: 5.0 mg/kg/injection, schedule: Q01DX015 (ip), vehicle: saline
  T/C: 103 % of control
dose: 5.0 mg/kg/injection, schedule: Q03HX008 (ip), vehicle: other
  T/C: 175 % of control
dose: 5.0 mg/kg/injection, schedule: Q03HX016 (ip), vehicle: other
  T/C: 261 % of control
dose: 5.0 mg/kg/injection, schedule: Q03HX024 (ip), vehicle: other
  T/C: 526 % of control
dose: 5.0 mg/kg/injection, schedule: Q03HX032 (ip), vehicle: other
  T/C: 420 % of control
dose: 5.0 mg/kg/injection, schedule: Q04DX003 (ip), vehicle: other
  T/C: 105 % of control
dose: 5.0 mg/kg/injection, schedule: Q04DX003 (ip), vehicle: saline with Tween-80
  T/C: 116 % of control
dose: 5.0 mg/kg/injection, schedule: Q08DX002 (ip), vehicle: other
  T/C: 102 % of control
dose: 6.0 mg/kg/injection, schedule: Q03HX024 (ip), vehicle: saline with Tween-80
  T/C: 376 % of control
dose: 6.6 mg/kg/injection, schedule: Q02DX010 (ip), vehicle: carboxymethylcellulose (CMC)
  T/C: 121 % of control
dose: 6.7 mg/kg/injection, schedule: Q01DX015 (ip), vehicle: other
  T/C: 169 % of control
dose: 6.7 mg/kg/injection, schedule: Q02DX010 (ip), vehicle: carboxymethylcellulose (CMC)
  T/C: 114 % of control
dose: 7.0 mg/kg/injection, schedule: Q01DX015 (ip), vehicle: saline
  T/C: 152 % of control
dose: 7.0 mg/kg/injection, schedule: Q04DX002 (ip), vehicle: saline with Tween-80
  T/C: 107 % of control and 116 % of control
dose: 7.5 mg/kg/injection, schedule: Q03HX032 (ip), vehicle: other
  T/C: 150 % of control
dose: 8.0 mg/kg/injection, schedule: Q04DX003 (ip), vehicle: other
  T/C: 101 % of control
dose: 8.0 mg/kg/injection, schedule: Q08DX002 (ip), vehicle: other
  T/C: 104 % of control
dose: 10.0 mg/kg/injection, schedule: Q01DX009 (ip), vehicle: other
  T/C: 155 % of control
dose: 10.0 mg/kg/injection, schedule: Q01DX009 (ip), vehicle: saline
  T/C: 114 % of control
dose: 10.0 mg/kg/injection, schedule: Q01DX015 (ip), vehicle: other
  T/C: 164 % of control
dose: 10.0 mg/kg/injection, schedule: Q02DX010 (ip), vehicle: carboxymethylcellulose (CMC)
  T/C: 120 % of control
dose: 10.0 mg/kg/injection, schedule: Q04DX003 (ip), vehicle: saline with Tween-80
  T/C: 114 % of control
dose: 10.7 mg/kg/injection, schedule: Q01DX Z (ip), vehicle: carboxymethylcellulose (CMC)
  T/C: 116 % of control
dose: 11.0 mg/kg/injection, schedule: Q01DX015 (ip), vehicle: saline
  T/C: 116 % of control
dose: 12.0 mg/kg/injection, schedule: Q04DX003 (ip), vehicle: other
  T/C: 107 % of control
dose: 12.0 mg/kg/injection, schedule: Q08DX002 (ip), vehicle: other
  T/C: 100 % of control
dose: 14.0 mg/kg/injection, schedule: Q04DX002 (ip), vehicle: saline with Tween-80
  T/C: 110 % of control and 112 % of control
dose: 14.5 mg/kg/injection, schedule: Q01DX001 (ip), vehicle: other
  T/C: 105 % of control
dose: 15.0 mg/kg/injection, schedule: Q01DX009 (ip), vehicle: other
  T/C: 159 % of control
dose: 15.0 mg/kg/injection, schedule: Q02DX010 (ip), vehicle: carboxymethylcellulose (CMC)
  T/C: 120 % of control and 121 % of control (2×)
dose: 17.0 mg/kg/injection, schedule: Q01DX015 (ip), vehicle: saline
  T/C: 104 % of control
dose: 18.0 mg/kg/injection, schedule: Q04DX003 (ip), vehicle: other
  T/C: 112 % of control
dose: 18.0 mg/kg/injection, schedule: Q08DX002 (ip), vehicle: other
  T/C: 97 % of control
dose: 20.0 mg/kg/injection, schedule: Q04DX003 (ip), vehicle: saline with Tween-80
  T/C: 109 % of control
dose: 22.0 mg/kg/injection, schedule: Q01DX001 (ip), vehicle: other
  T/C: 101 % of control and 114 % of control
dose: 22.5 mg/kg/injection, schedule: Q02DX010 (ip), vehicle: carboxymethylcellulose (CMC)
  T/C: 109 % of control and 90 % of control
dose: 25.0 mg/kg/injection, schedule: Q01DX015 (ip), vehicle: saline
  T/C: 90 % of control
dose: 27.0 mg/kg/injection, schedule: Q04DX003 (ip), vehicle: other
  T/C: 104 % of control
dose: 27.0 mg/kg/injection, schedule: Q08DX002 (ip), vehicle: other
  T/C: 95 % of control
dose: 28.0 mg/kg/injection, schedule: Q04DX002 (ip), vehicle: saline with Tween-80
  T/C: 104 % of control and 107 % of control
dose: 30.0 mg/kg/injection, schedule: Q01DX009 (ip), vehicle: saline with Tween-80
  T/C: 90 % of control
dose: 33.0 mg/kg/injection, schedule: Q01DX001 (ip), vehicle: other
  T/C: 105 % of control and 112 % of control
dose: 34.0 mg/kg/injection, schedule: Q02DX010 (ip), vehicle: carboxymethylcellulose (CMC)
  T/C: 73 % of control and 89 % of control
dose: 50.0 mg/kg/injection, schedule: Q01DX001 (ip), vehicle: other
  T/C: 104 % of control

## O=C(O)c1cc2ccccc2c2c1ccc1ccccc12
dose: 50.0 mg/kg/injection, schedule: Q01DX001 (ip), vehicle: Klucel (hydroxypropylcellulose) (HPC)
  T/C: 92 % of control
dose: 100.0 mg/kg/injection, schedule: Q01DX001 (ip), vehicle: Klucel (hydroxypropylcellulose) (HPC)
  T/C: 93 % of control
dose: 200.0 mg/kg/injection, schedule: Q01DX001 (ip), vehicle: Klucel (hydroxypropylcellulose) (HPC)
  T/C: 93 % of control

## Nc1ccccc1C(=O)N/N=C/c1ccc(Cl)cc1Cl
dose: 100.0 mg/kg/injection, schedule: Q01DX009 (ip), vehicle: Klucel (hydroxypropylcellulose) (HPC)
  T/C: 89 % of control
dose: 100.0 mg/kg/injection, schedule: Q04DX002 (ip), vehicle: Klucel (hydroxypropylcellulose) (HPC)
  T/C: 95 % of control
dose: 200.0 mg/kg/injection, schedule: Q01DX009 (ip), vehicle: Klucel (hydroxypropylcellulose) (HPC)
  T/C: 98 % of control
dose: 200.0 mg/kg/injection, schedule: Q04DX002 (ip), vehicle: Klucel (hydroxypropylcellulose) (HPC)
  T/C: 102 % of control
dose: 400.0 mg/kg/injection, schedule: Q04DX002 (ip), vehicle: Klucel (hydroxypropylcellulose) (HPC)
  T/C: 104 % of control

— PubChem BioAssay AID248 (DTP/NCI, 2004)
